Assay results taken from patent publication US20260048142A1, “METAL-CHELATED POLYPHENOL COMPLEX NANOPARTICLE, DRUG-LIPID PARTICLE, PREPARATION METHODS FOR THE SAME, AND USES THEREOF” (priority 2022, published 2026).
Read-outs that look alike come from different tables or passages of the source.

Test system: 293T cells
Test: CCK8 cell activity, median lethal dose IC50
Type: cell-based, Human
Description: After incubating 293T cells with different concentrations of the metal-chelated polyphenol complex ([…]), cationic lipid (DOTAP, 0, 0.1, 0.3, 0.9, 2.7, 8.1, 24.3, 72.9, 218.7 μM) and ionizable lipid (ALC0315, 0, 0.1, 0.3, 0.9, 2.7, 8.1, 24.3, 72.9, 218.7 μM) for 48 hours, cell activity was detected using a CCK8 activity detection kit, and the median lethal dose IC50 of the metal-chelated polyphenol complex, cationic lipid (DOTAP) and ionizable lipid (ALC0315) for 293T cells was calculated respectively.
• Cell culture: cells were cultivated with DMEM culture medium containing 10% FBS and 1% Penicillin-Streptomycin Solution, and wait until the cell density reached 80%-90% of the culture bottle; • The remaining culture medium in the culture bottle was washed with PBS, the culture bottle was added with trypsin, and quickly transferred to a 37° C. incubator containing 5% CO2. During close observation, when the cells become slightly round, culture medium was added to stop digestion. The mixture was transferred to a centrifuge tube, centrifuged at 1500 RPM for 5 minutes, and the cells were resuspended with fresh culture medium; • Counting: the cell suspension was diluted to 10,0000 cells per 1 mL according to the purpose, 100 μL per well in a 96-well plate, and at least 5 replicates per group. Drug was added after 24 h of incubation at 37° C., 5% CO2; • After drug incubation for 48 h, 10% CCK8 was added, incubated for 1-3 h, and absorbance was measured by an ELISA reader at 450 nm;
[formula] • IC50 calculation method: with survival rate as the ordinate and drug concentration as the abscissa, IC50 was calculated by Graphpad using [Inhibitor] vs. normalized response-Variable slope analysis method.
The calculation method of IC50 is as described in Example 10.

Compound | IC50 (Homo sapiens, HEK-293T, 48 h) | IC50 (Homo sapiens, HEK-293T, Table 4-3, median lethal dose for 293T cells, CCK8, read-out: IC50) | IC50 (Table 2-2, median lethal dose for 293T cells, 48 hours, CCK8, read-out: IC50) | IC50 (Table 4-3, median lethal dose for 293T cells, CCK8, read-out: IC50)
CCCCCCCCC(CCCCCC)C(=O)OCCCCCCN(CCCCO)CCCCCCOC(=O)C(CCCCCC)CCCCCCCC (stereo not shown) [ALC0315] | 115 µM | 115 µM | – | –
CCCCCCCC/C=C\CCCCCCCC(=O)OCC(C[N+](C)(C)C)OC(=O)CCCCCCC/C=C\CCCCCCCC (stereo not shown) [DOTAP, N-(2,3-dioleoyloxy) propyl)-N,N, N-trimethylammonium chloride] | – | – | 25.7 µM | 25.7 µM
